Measured values taken from patent US20060276464A1, “Diarylsulfone sulfonamides and use thereof” (Wyeth, priority 2005, published 2006).
Values joined by “and” are separate entries in the source; they are usually repeats but may differ in a detail not shown here. Equal values may be shown once. Read-outs that look alike come from different tables or passages of the source.

Columns and labels:
SFRP-1 [1] = biological target: T1, SFRP-1 (Homo sapiens, UniProt Q8N474); assay: Cell-based assay for in vitro measurement of SFRP-1/SARP2 antagonist activity (U2OS cells co-transfected with 16x TCF-tk-Luciferase reporter, Wnt and hSFRP-1); conditions: U2OS;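 note: U2OS cells co-transfected with a TCF-tk luciferase reporter, a Wnt vector, hSFRP-1 or empty vector and CMV-βgal, luciferase luminescence read in cell lysates alongside βgal activity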
T1 sequence (Q8N474 32-314): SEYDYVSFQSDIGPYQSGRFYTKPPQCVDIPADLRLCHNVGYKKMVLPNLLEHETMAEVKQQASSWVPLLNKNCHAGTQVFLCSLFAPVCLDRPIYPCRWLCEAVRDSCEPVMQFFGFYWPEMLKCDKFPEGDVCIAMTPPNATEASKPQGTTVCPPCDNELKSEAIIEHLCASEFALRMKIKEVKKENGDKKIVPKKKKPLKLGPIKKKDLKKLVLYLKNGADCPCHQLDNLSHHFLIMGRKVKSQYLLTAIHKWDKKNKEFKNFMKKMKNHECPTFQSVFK

SFRP-1 [2] = biological target: T1, SFRP-1; assay: Fluorescence polarization binding assay (competitive displacement of a probe compound from SFRP-1); conditions: fluorescence anisotropy, 45 nM SFRP-1, 20 nM probe;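 note: test compound competes with a fluorescent probe held by SFRP-1, seen as a drop in probe anisotropy after incubation in darkness, with anisotropy as function of rising compound dose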
[3] = read-out: Fold Induction with SFRP-1, Conc 15 μM, with SFRP-1, fold induction over SFRP-1 control, single dose
[4] = read-out: Fold Induction without SFRP-1, Conc 15 μM, without SFRP-1, single dose

Row | fold induction at 15 µM (SFRP-1 [1]; [3]) | fold induction at 15 µM (SFRP-1 [1]; [4]) | IC50 (SFRP-1 [2]) | Compound
1 | 2.4 | 1 | 400 nM | CCNc1ccc(S(=O)(=O)c2ccc(C)c(S(=O)(=O)NCCCn3ccnc3)c2)cc1 [Example 311, 5-{[4-(ethylamino)phenyl]sulfonyl}-N-[3-(1H-imidazol-1-yl)propyl]-2-methylbenzenesulfonamide]
2 | 3.5 | 1.1 | 600 nM | CC(C)c1ccc(S(=O)(=O)c2ccc(F)cc2)cc1S(=O)(=O)NCCCn1ccnc1 [Example 319, 5-[(4-fluorophenyl)sulfonyl]-N-[3-(1H-imidazol-1-yl)propyl]-2-isopropylbenzenesulfonamide]
3 | 3.3 | 1.2 | 1000 nM | CC(C)c1ccc(S(=O)(=O)c2ccc(F)cc2)cc1S(=O)(=O)NC1CCOCC1 [Example 321, 5-[(4-fluorophenyl)sulfonyl]-2-isopropyl-N-tetrahydro-2H-pyran-4-ylbenzenesulfonamide]
4 | 2.9 | 0.9 | 1000 nM | Cc1cc(C)c(S(=O)(=O)c2ccc(F)cc2)cc1S(=O)(=O)NCCn1ccnc1 [Example 329, 5-[(4-fluorophenyl)sulfonyl]-N-[2-(1H-imidazol-1-yl)ethyl]-2,4-dimethylbenzenesulfonamide]
5 | 2.5 | 1 | 1700 nM | CNc1ccc(S(=O)(=O)c2ccc(C)c(S(=O)(=O)NCCc3ccccn3)c2)cc1 [Example 356, 2-methyl-5-{[4-(methylamino)phenyl]sulfonyl)-N-(2-pyridin-2-ylethyl)benzenesulfonamide]
6 | 2.9 | 1 | 600 nM | CNc1ccc(S(=O)(=O)c2ccc(C(C)C)c(S(=O)(=O)NC3CCOCC3)c2)cc1 [Example 358, 2-isopropyl-5-{[4-(methylamino)phenyl]sulfonyl}-N-(tetrahydro-2H-pyran-4-yl)benzenesulfonamide]
7 | 2.7 | 0.9 | 800 nM | CNc1ccc(S(=O)(=O)c2ccc(C(C)C)c(S(=O)(=O)NCCC3CCOCC3)c2)cc1 [Example 359, 2-isopropyl-5-{[4-(methylamino)phenyl]sulfonyl}-N-[2-(tetrahydro-2H-pyran-4-yl)ethyl]benzenesulfonamide]
8 | 1.9 | 0.9 | 2000 nM | Cc1ccc(S(=O)(=O)c2cccc(Cl)c2Cl)cc1S(=O)(=O)NCCCn1ccnc1 [Example 360, 5-[(2,3-dichlorophenyl)sulfonyl]-N-[3-(1H-imidazol-1-yl)propyl]-2-methylbenzenesulfonamide]
9 | 2.2 | 0.9 | 2000 nM and 2100 nM | Cc1ccc(S(=O)(=O)c2ccc(N[C@H](C)C3CCCCC3)cc2)cc1S(=O)(=O)NCCCn1ccnc1 [Example 372, 5-[(4-{[(1R)-1-cyclohexylethyl]amino}phenyl)sulfonyl]-N-[3-(1H-imidazol-1-yl)propyl]-2-methylbenzenesulfonamide]
10 | 2.8 | 1 | 1100 nM | CCC(O)CNc1ccc(S(=O)(=O)c2ccc(C)c(S(=O)(=O)NCCCn3ccnc3)c2)cc1 (stereo not drawn) [Example 373, 5-({4-[(2-hydroxybutyl)amino]phenyl}sulfonyl)-N-[3-(1H-imidazol-1-yl)propyl]-2-methylbenzenesulfonamide]
11 | 2.1 | 0.8 | 4000 nM | Cc1ccc(S(=O)(=O)c2ccc(Br)cc2)cc1S(=O)(=O)NCCc1ccccn1 [Example 381, 5-[(4-bromophenyl)sulfonyl]-2-methyl-N-(2-pyridin-2-ylethyl)benzenesulfonamide]

Further lines, the compound ahead of its results:

Row | Compound | fold induction at 15 µM (SFRP-1 [1]; [3]) | fold induction at 15 µM (SFRP-1 [1]; [4]) | IC50 (SFRP-1 [2])
12 | CCc1ccc(S(=O)(=O)c2ccc(F)cc2)cc1S(=O)(=O)NCCCn1ccnc1 [Example 303, 2-ethyl-5-[(4-fluorophenyl)sulfonyl]-N-[3-(1H-imidazol-1-yl)propyl]benzenesulfonamide] | 2.7 | 0.8 | 700 nM
13 | CNc1ccc(S(=O)(=O)c2ccc(C)c(S(=O)(=O)NCCCn3ccnc3)c2)cc1 [Example 310, N-[3-(1H-imidazol-1-yl)propyl]-2-methyl-5-{[4-(methylamino)phenyl]sulfonyl}benzenesulfonamide] | 2.9 | 1.1 | 400 nM
14 | Cc1ccc(S(=O)(=O)c2ccc(N3CCOCC3)cc2)cc1S(=O)(=O)NCCCn1ccnc1 [Example 313, N-[3-(1H-imidazol-1-yl)propyl]-2-methyl-5-[(4-morpholin-4-ylphenyl)sulfonyl]benzenesulfonamide] | 1.9 | 1 | 500 nM
15 | Cc1ccc(S(=O)(=O)c2ccccc2)cc1S(=O)(=O)NCCn1ccnc1 [Example 314, N-[2-(1H-imidazol-1-yl)ethyl]-2-methyl-5-(phenylsulfonyl)benzenesulfonamide] | 3.3 | 1.3 | 1200 nM
16 | CC(C)c1ccc(S(=O)(=O)c2ccc(F)cc2)cc1S(=O)(=O)NCCn1ccnc1 [Example 318, 5-[(4-fluorophenyl)sulfonyl]-N-[2-(1H-imidazol-1-yl)ethyl]-2-isopropylbenzenesulfonamide] | 3.9 | 1.1 | 400 nM and 500 nM and 600 nM and 700 nM and 900 nM
17 | CC(C)c1ccc(S(=O)(=O)c2ccc(F)cc2)cc1S(=O)(=O)NCCc1ccccn1 [Example 320, 5-[(4-fluorophenyl)sulfonyl]-2-isopropyl-N-(2-pyridin-2-ylethyl)benzenesulfonamide] | 2.8 | 1.2 | 900 nM
18 | CC(C)c1ccc(S(=O)(=O)c2ccc(F)cc2)cc1S(=O)(=O)NCCC1CCOCC1 [Example 322, 5-[(4-fluorophenyl)sulfonyl]-2-isopropyl-N-(2-tetrahydro-2H-pyran-4-ylethyl)benzenesulfonamide] | 2.5 | 1.1 | 600 nM
19 | Cc1cc(C)c(S(=O)(=O)c2ccccc2)cc1S(=O)(=O)NCCn1ccnc1 [Example 324, N-[2-(1H-imidazol-1-yl)ethyl]-2,4-dimethyl-5-(phenylsulfonyl)benzenesulfonamide] | 3.2 | 0.9 | 900 nM
20 | Cc1cc(C)c(S(=O)(=O)c2ccccc2)cc1S(=O)(=O)NCCC1CCOCC1 [Example 328, 2,4-dimethyl-5-(phenylsulfonyl)-N-(2-tetrahydro-2H-pyran-4-ylethyl)benzenesulfonamide] | 2.6 | 1.1 | 3000 nM
21 | Cc1ccc(S(=O)(=O)c2cc(Cl)cc(Cl)c2)cc1S(=O)(=O)NCCCn1ccnc1 [Example 344, 5-[(3,5-dichlorophenyl)sulfonyl]-N-[3-(1H-imidazol-1-yl)propyl]-2-methylbenzenesulfonamide] | 2.2 | 1 | 1400 nM
22 | Cc1ccc(S(=O)(=O)c2ccc(NCCC#N)cc2)cc1S(=O)(=O)NCCCn1ccnc1 [Example 353, 5-({4-[(2-cyanoethyl)amino]phenyl}sulfonyl)-N-[3-(1H-imidazol-1-yl)propyl]-2-methylbenzenesulfonamide] | 3.3 | 1.1 | 300 nM
23 | CC[C@H](C)[C@@H](CO)Nc1ccc(S(=O)(=O)c2ccc(C)c(S(=O)(=O)NCCCn3ccnc3)c2)cc1 [Example 354, 5-[(4-{[(1S,2S)-1-(hydroxymethyl)-2-methylbutyl]amino}phenyl)sulfonyl]-N-[3-(1H-imidazol-1-yl)propyl]-2-methylbenzenesulfonamide] | 2.6 | 1 | 1400 nM
24 | CNc1ccc(S(=O)(=O)c2ccc(C(C)C)c(S(=O)(=O)NCCc3ccccn3)c2)cc1 [Example 357, 2-isopropyl-5-{[4-(methylamino)phenyl]sulfonyl}-N-(2-pyridin-2-ylethyl)benzenesulfonamide] | 4.2 | 1.1 | 300 nM
25 | Cc1ccc(S(=O)(=O)c2ccc(NCC3CC3)cc2)cc1S(=O)(=O)NCCCn1ccnc1 [Example 368, 5-({4-[(cyclopropylmethyl)amino]phenyl}sulfonyl)-N-[3-(1H-imidazol-1-yl)propyl]-2-methylbenzenesulfonamide] | 2.5 | 1 | 900 nM
26 | Cc1ccc(S(=O)(=O)c2ccc(NCc3ccccc3)cc2)cc1S(=O)(=O)NCCCn1ccnc1 [Example 370, 5-{[4-(benzylamino)phenyl]sulfonyl}-N-[3-(1H-imidazol-1-yl)propyl]-2-methylbenzenesulfonamide] | 1.8 | 0.8 | 500 nM
27 | Cc1ccc(S(=O)(=O)c2ccc(N[C@@H](C)C3CCCCC3)cc2)cc1S(=O)(=O)NCCCn1ccnc1 [Example 371, 5-[(4-{[(1S)-1-cyclohexylethyl]amino}phenyl)sulfonyl]-N-[3-(1H-imidazol-1-yl)propyl]-2-methylbenzenesulfonamide] | 1.4 | 0.8 | 7000 nM
